Measured values taken from article PMC9866191, “Novel 9-Benzylaminoacridine Derivatives as Dual Inhibitors of Phosphodiesterase 5 and Topoisomerase II for the Treatment of Colon Cancer” (Molecules, 2023).

Key:
[1] = system: IGROV1; test: NCI-60 one-dose screen; assay type: cell-based; conditions: Homo sapiens, IGROV-1; IGROV1, Ovarian Cancer panel; single dose 10^−5 M; read-out: Growth inhibition %
[2] = system: NCI-H522; test: NCI-60 one-dose screen; assay type: cell-based; conditions: Homo sapiens; NCI-H522, Non-small cell lung panel; single dose 10^−5 M; read-out: Growth inhibition %
[3] = system: NCI-H322M; test: NCI-60 one-dose screen; assay type: cell-based; conditions: Homo sapiens, Non-small cell lung panel, single dose 10^−5 M, read-out: Growth inhibition %
[4] = system: CAKI-1; test: NCI-60 one-dose screen; assay type: cell-based; conditions: Homo sapiens; CAKI-1, Renal Cancer panel; single dose 10^−5 M; read-out: Growth inhibition %
[5] = system: MCF7; test: NCI-60 one-dose screen; assay type: cell-based; conditions: Homo sapiens; MCF7, Breast Cancer panel; single dose 10^−5 M; read-out: Growth inhibition %
[6] = system: MDA-MB-468; test: NCI-60 one-dose screen; assay type: cell-based; conditions: Homo sapiens; MDA-MB-468, Breast Cancer panel; single dose 10^−5 M; read-out: Growth inhibition %
[7] = system: ACHN; test: NCI-60 one-dose screen; assay type: cell-based; conditions: Homo sapiens, Renal Cancer panel, single dose 10^−5 M, read-out: Growth inhibition %
[8] = system: HOP-92; test: NCI-60 one-dose screen; assay type: cell-based; conditions: Homo sapiens; HOP-92, Non-small cell lung panel; single dose 10^−5 M; read-out: Growth inhibition %
[9] = system: HCT-116; test: NCI-60 one-dose screen; assay type: cell-based; conditions: Homo sapiens, read-out: Growth inhibition %
[10] = system: OVCAR-4; test: NCI-60 one-dose screen; assay type: cell-based; conditions: Homo sapiens; OVCAR-4, Ovarian Cancer panel; single dose 10^−5 M; read-out: Growth inhibition %
[11] = system: HL-60(TB); test: NCI-60 one-dose screen; assay type: cell-based; conditions: Homo sapiens, Leukemia panel, single dose 10^−5 M, read-out: Growth inhibition %
[12] = system: MOLT-4; test: NCI-60 one-dose screen; assay type: cell-based; conditions: Homo sapiens; MOLT-4, Leukemia panel; single dose 10^−5 M; read-out: Growth inhibition %
[13] = system: SNB-75; test: NCI-60 one-dose screen; assay type: cell-based; conditions: Homo sapiens; SNB-75, CNS Cancer panel; single dose 10^−5 M; read-out: Growth inhibition %
[14] = system: SK-MEL-28; test: NCI-60 one-dose screen; assay type: cell-based; conditions: Homo sapiens; SK-MEL-28, Melanoma panel; single dose 10^−5 M; read-out: Growth inhibition %
[15] = system: 786-0; test: NCI-60 one-dose screen; assay type: cell-based; conditions: Homo sapiens; 786-0, Renal Cancer panel; single dose 10^−5 M; read-out: Growth inhibition %
[16] = system: MDA-MB-231/ATCC; test: NCI-60 one-dose screen; assay type: cell-based; conditions: Homo sapiens, Breast Cancer panel, single dose 10^−5 M, read-out: Growth inhibition %
[17] = system: A549/ATCC; test: NCI-60 one-dose screen; assay type: cell-based; conditions: Homo sapiens, Non-small cell lung panel, single dose 10^−5 M, read-out: Growth inhibition %
[18] = system: SN12C; test: NCI-60 one-dose screen; assay type: cell-based; conditions: Homo sapiens, Renal Cancer panel, single dose 10^−5 M, read-out: Growth inhibition %
[19] = system: HS 578T; test: NCI-60 one-dose screen; assay type: cell-based; conditions: Homo sapiens, Breast Cancer panel, single dose 10^−5 M, read-out: Growth inhibition %
[20] = system: HOP-62; test: NCI-60 one-dose screen; assay type: cell-based; conditions: Homo sapiens; HOP-62, Non-small cell lung panel; single dose 10^−5 M; read-out: Growth inhibition %
[21] = system: NCI-H460; test: NCI-60 one-dose screen; assay type: cell-based; conditions: Homo sapiens; NCI-H460, Non-small cell lung panel; single dose 10^−5 M; read-out: Growth inhibition %
[22] = system: MDA-MB-435; test: NCI-60 one-dose screen; assay type: cell-based; conditions: Homo sapiens; MDA-MB-435, Melanoma panel; single dose 10^−5 M; read-out: Growth inhibition %
[23] = system: OVCAR-3; test: NCI-60 one-dose screen; assay type: cell-based; conditions: Homo sapiens; OVCAR-3, Ovarian Cancer panel; single dose 10^−5 M; read-out: Growth inhibition %
[24] = system: NCI-H23; test: NCI-60 one-dose screen; assay type: cell-based; conditions: Homo sapiens; NCI-H23, Non-small cell lung panel; single dose 10^−5 M; read-out: Growth inhibition %
[25] = system: UO-31; test: NCI-60 one-dose screen; assay type: cell-based; conditions: Homo sapiens; UO-31, Renal Cancer panel; single dose 10^−5 M; read-out: Growth inhibition %
[26] = system: NCI/ADR-RES; test: NCI-60 one-dose screen; assay type: cell-based; conditions: Homo sapiens, Ovarian Cancer panel, single dose 10^−5 M, read-out: Growth inhibition %
[27] = system: panel of 60 human tumor cell lines; test: NCI 60-cell line one-dose screen (mean); assay type: cell-based; conditions: mean of the 60 cell lines, single dose 10^−5 M, read-out: Mean % Growth Inhibition
Procedure: The newly synthesized compounds were screened for their in vitro anticancer activity at the Developmental Therapeutic Program (DTP) of the National Cancer Institute (NCI). The screening involved a panel of 60 human tumor cell lines consisting of 9 tissue types to screen for potential anti-cancer agents. The primary screening of submitted compounds was performed by testing a single dose (10^−5 M) in the full NCI-60 panel. The detailed % inhibition by the tested compounds against the 60 cell lines is shown in Tables S1–S3 in the Supporting Information.

[28] = target: T1, PDE5A (Homo sapiens, UniProt O76074); test: Phosphodiesterase 5 HTRF cGMP assay; assay type: biochemical; conditions: for IC50: means ± S.D. (n = 4), read-out: PDE5 IC50; for inhibition at 10 µM: read-out: PDE5 % Inhibition at 10 μM
T1 construct: purchased BPS Bioscience, San Diego, CA, USA
Procedure: All the synthesized acridine derivatives were tested for their in vitro ability to inhibit PDE5A at a screening dose of 10 µM.
The enzyme activities of phosphodiesterase 5 (PDE5) were measured using an HTRF cGMP assay kit (Cisbio, Codolet, France). […] Afterward, the HTRF reagent (cGMP-d2 and anti-cGMP-cryptate) was added for 1 h at 25 °C, and PDE activity was assayed on an HTRF reader (Tecan Infinite F200 Pro).

[29] = system: SF-268; test: NCI-60 one-dose screen; assay type: cell-based; conditions: Homo sapiens; SF-268, CNS Cancer panel; single dose 10^−5 M; read-out: Growth inhibition %
[30] = system: HCT-116; test: MTT cell proliferation assay, HCT-116
Procedure: In the MTT assay, 96-well culture plates were used. A total of 7 × 10^4 cells per well were seeded, and test materials were added to the cells at various concentrations [47, 48]. Human cancer and non-cancer cell lines were purchased commercially from the American Type Culture Collection (ATCC). After 72 h, the cytotoxicity of the compounds and paclitaxel (as a positive control group) was detected using the MTT method (thiazolyl blue tetrazolium bromide, Sigma-M2128). Absorbance values at 570 and 620 nm (OD = OD570–OD620) were measured using an ELISA reader (Anthos Labtec Instruments, Salzburg, Austria).

Row | Structure (SMILES) | inhibition at 10 µM [1] [%] | inhibition at 10 µM [2] [%] | inhibition at 10 µM [3] [%] | inhibition at 10 µM [4] [%] | inhibition at 10 µM [5] [%] | inhibition at 10 µM [6] [%] | inhibition at 10 µM [7] [%] | inhibition at 10 µM [8] [%] | inhibition at 10 µM [9] [%] | inhibition at 10 µM [10] [%] | inhibition at 10 µM [12] [%] | inhibition at 10 µM [13] [%] | inhibition at 10 µM [14] [%] | inhibition at 10 µM [15] [%] | inhibition at 10 µM [16] [%] | inhibition at 10 µM [17] [%] | inhibition at 10 µM [18] [%] | inhibition at 10 µM [19] [%] | inhibition at 10 µM [20] [%] | inhibition at 10 µM [21] [%] | further results
1 | COc1cccc(CNc2c3ccccc3nc3ccccc23)c1 [Compound 6, Acridin-9-yl-(3-methoxybenzyl)-amine] | 71.7 | 38.3 | 56 | 64.3 | 85.4 | 86.4 | 80.8 | 74.5 | 90.1 | 56.4 | 93.6 | 43.1 | 18.8 | 62.7 | 50.1 | 69.8 | 62.1 | 44.4 | 53.5 | 90 | inhibition at 10 µM [11]: 59.1%; inhibition at 10 µM [22]: 57%; inhibition at 10 µM [23]: 45.2%; inhibition at 10 µM [24]: 62.7%; inhibition at 10 µM [25]: 73%; inhibition at 10 µM [26]: 62.5%; inhibition at 10 µM [27]: 63.1%; IC50 [28]: > 10 µM; inhibition at 10 µM [28]: 39.7 ± 3.2%; inhibition at 10 µM [29]: 28.8%
2 | COc1ccc(CNc2c3ccccc3nc3ccccc23)cc1 [Compound 7, Acridin-9-yl-(4-methoxybenzyl)-amine] | 72.8 | 47 | 52.9 | 70.7 | 87.4 | 72.9 | 81.2 | 75.5 | 90.5 | 59.7 | 90.6 | 38.2 | 20.4 | 67.6 | 52.6 | 71.1 | 67.8 | 42 | 46.1 | 90.3 | inhibition at 10 µM [11]: 57%; inhibition at 10 µM [22]: 59.8%; inhibition at 10 µM [23]: 51.9%; inhibition at 10 µM [24]: 61.2%; inhibition at 10 µM [25]: 77.9%; inhibition at 10 µM [26]: 61.2%; inhibition at 10 µM [27]: 63.2%; IC50 [28]: > 10 µM; inhibition at 10 µM [28]: < 0%; inhibition at 10 µM [29]: 36.6%
3 | Cc1ccc2nc3ccccc3c(NCc3ccc(Cl)cc3)c2c1 [Compound 31, (4-Chlorobenzyl)-(2-methyl-acridin-9-yl)-amine] | 72.9 | 45.8 | 44.1 | 54.3 | 121 | 122 | 66.7 | 105 | 85.3 | 62.5 | 99.9 | 33.5 | 24.5 | 65.3 | 62.3 | 59.2 | 60.5 | 22.2 | 34.8 | 70.5 | % Inhibition at 10 µM ([30]; 10 µM, 72 h MTT, means ± SD): 55.53 ± 1.69%; IC50 ([30]; read-out: IC50 μM, 72 h MTT, means ± SD, three experiments): 7.95 ± 0.65 µM; inhibition at 10 µM [22]: 29.7%; inhibition at 10 µM [23]: 29.1%; inhibition at 10 µM [24]: 54%; inhibition at 10 µM [25]: 75.5%; inhibition at 10 µM [26]: 58%; inhibition at 10 µM [27]: 66.9%; IC50 [28]: 4.78 ± 1.48 µM; inhibition at 10 µM [28]: 65.7 ± 7.48%; inhibition at 10 µM [29]: 20.9%
